Measurements: ChEMBL document CHEMBL1255562, “6,7-Dihydroxy-4-phenylcoumarin as inhibitor of aldose reductase 2” (Bioorg Med Chem Lett, 2010)

Columns and labels:
[1] = Selectivity index, ratio of IC50 for human recombinant […] to IC50 for kidney aldose reductase 2
[2] = target: Aldo-keto reductase family 1 member B1 (Homo sapiens, UniProt P15121); assay: Inhibition human recombinant […] by spectrophotometric analysis
[3] = target: T1, Sorbitol dehydrogenase (Homo sapiens, UniProt Q00796); assay: Inhibition sorbitol dehydrogenase by spectrophotometric analysis
T1 sequence (Q00796 whole entry): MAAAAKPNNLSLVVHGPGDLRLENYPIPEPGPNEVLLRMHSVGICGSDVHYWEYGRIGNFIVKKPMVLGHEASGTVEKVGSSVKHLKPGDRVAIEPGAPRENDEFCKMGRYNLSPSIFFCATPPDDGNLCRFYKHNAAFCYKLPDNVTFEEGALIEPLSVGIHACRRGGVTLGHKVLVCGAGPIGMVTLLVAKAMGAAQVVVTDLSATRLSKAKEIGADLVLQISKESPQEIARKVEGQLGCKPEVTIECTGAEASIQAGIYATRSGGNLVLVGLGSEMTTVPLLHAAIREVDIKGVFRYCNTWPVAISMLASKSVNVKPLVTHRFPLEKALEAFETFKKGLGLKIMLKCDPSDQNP

[4] = Selectivity index, ratio of IC50 for sorbitol dehydrogenase to IC50 for kidney aldose reductase 2
[5] = Inhibition kidney aldose reductase 2 by spectrophotometric analysis
[6] = organism: Rattus norvegicus; assay: Reduction of galactitol accumulation in Wistar rat lens after 24 hrs; format: functional, tissue-based; settings: Lens of camera-type eye

SMILES | Ratio IC50 [1] | IC50 [2] [µM] | IC50 [3] [µM] | Ratio IC50 [4] | IC50 [5] [µM] | Activity [6]
Cc1cc(=O)oc2cc(O)c(O)cc12 [4-METHYLESCULETIN] | 1.68 | 64.4 | 212 | 5.54 | 38.3 | 
O=C(O)Cc1cc(=O)oc2cc(O)c(O)cc12 | 1.19 | 63.3 | 335 | 6.27 | 53.4 | 
O=c1ccc2cc(O)ccc2o1 [6-HYDROXYCOUMARIN] | 1.1 | 171 | > 400 | > 2.56 | 156 | 
CC(/C=C1\SC(=S)N(CC(=O)O)C1=O)=C\c1ccccc1 |  |  | 67.7 |  | 1.4 | 
O=c1oc2ccccc2cc1O [3-HYDROXYCOUMARIN] | 0.35 | 62 | 106 | 0.62 | 172 | 
O=c1cc(-c2ccccc2)c2cc(O)c(O)cc2o1 | 6.9 | 66.3 | 288 | 30 | 9.6 | Dose-dependent effect
O=C(O)Cc1cc(=O)oc2cc(O)ccc12 | 0.15 | 20.8 | 163 | 1.15 | 142 | 
O=c1cc(O)c2ccccc2o1 [4-HYDROXYCOUMARINS] | > 9.88 | > 400 | > 400 | > 9.88 | 40.5 | 
O=c1cc(-c2ccccc2)c2ccc(O)cc2o1 | 0.07 | 2.4 | 70.7 | 1.93 | 36.7 | 

Second part, led by results:

Ratio IC50 [1] | IC50 [2] [µM] | IC50 [3] [µM] | Ratio IC50 [4] | IC50 [5] [µM] | SMILES | Activity [6]
 | > 500 | > 400 |  | > 400 | O=c1ccc2ccccc2o1 [COUMARIN] | 
0.27 | 24.5 | 153 | 1.7 | 89.9 | Cc1cc(=O)oc2cc(O)ccc12 [HYMECROMONE] | 
0.27 | 22.9 | 120 | 1.4 | 85.7 | O=c1ccc2ccc(O)cc2o1 [UMBELLIFERONE] | 
1.84 | 67.2 | 82.9 | 2.27 | 36.5 | O=c1ccc2cc(O)c(O)cc2o1 [ESCULETIN] | 
1.62 | 74.4 | 137 | 2.98 | 46 | COc1cc2ccc(=O)oc2cc1O [SCOPOLETIN] | 
 |  | 124 |  |  | COc1ccc2ccc(=O)oc2c1 [HERNIARIN] | 
0.56 | 56.2 | > 250 | > 2.48 | 101 | COc1cc2oc(=O)ccc2cc1O [ISOSCOPOLETIN] | 
